pEC50: −log10 of the molar value. Counter-ions that a name gives are not always drawn. Like-named read-outs stand apart in the source and are kept apart here.

For data set [1], the system named is primary human mesenchymal stem cells (MSCs). The data set can be described thus: Osteoinductive (OI) alkaline phosphatase (ALP) assay, dose response, ALP normalised to DNA. The class given is cell-based. From the text:
(§1) Samples from several classes of small molecule compounds including, corticosteroids, glucocorticoids, oxysterols, compounds that impact the HMG coA reductase pathway and compounds that upregulate intracellular cAMP were screened for osteoinductive potential with an alkaline phosphatase (ALP) assay in primary human mesenchymal stem cells (MSCs). Sample compounds were screened over a dose range in a multiwell plate format using DNA to normalize the ALP response as a function of cell number. These dose response curves allowed for the determination of an EC50 to measure relative potency of the osteogenic response between compounds. FIG. 1 is a representative dose response curve for two of the corticosteroid compounds tested, clobetasol propionate and dexamethasone. In addition to the functional analysis, certain identified compounds were run through an in vitro L929 cytotoxicity assay to determine a CC50.

Data set [2] can be described thus: In vitro L929 cytotoxicity assay (CTG). It is filed as cell-based. To be noted: mouse, L929 cells; read-out: Cytotox (CTG) CC50.
Text: as §1

Data set [3] has as its system MSCs. Kind of data set: Relative potency: ALP assay after short exposure times, then basal media to assay completion. The class given is cell-based, human. The following applies: for pEC50: Homo sapiens, MSCs, then basal media; for Max Osteogenic Response: time range to reach the full response of the ALP assay control (dexamethasone at 10 nM for 6 days). Here is the method:
One part of this technology may involve coating an osteoconductive scaffold with an osteoinductive small molecule compound to thereby deliver the compound locally when the scaffold is implanted. Consequently, the optimal time and concentration profile required for the compound to remain at the site in order to influence an osteogenic outcome was determined. Initially, potency was determined by looking at exposure over 6 days. In order to better understand the optimal exposure profile, MSCs were treated over a series of dose ranges for exposure times starting at 1 hour out to 4 days, after which the compound treated media was removed and the cells were allowed to continue to assay completion under basal media conditions. This allowed for the determination of the relative potency of the compounds over short exposure periods and gave an indication of the release requirements that would be necessary to achieve the desired osteogenic outcome.
FIG. 2 is a representative relative potency graph of a corticosteroid, fluticasone propionate, based on the results shown in Table 2.

For data set [4], the system named is MSCs. Kind of data set: In vitro 3-D efficacy: ALP RNA expression in MSCs seeded on coated Scaffold I. The class given is cell-based. To be noted: compound precoated on Scaffold I, MSCs cultured three days, versus basal conditions. Here is the method: The osteoinductive potential of selected small molecule compounds were determined in vitro by seeding MSCs onto a three dimensional b-TCP polymer composite scaffold, Scaffold I, which had been coated with selected compounds prior to seeding. These cells were allowed to culture for a period of time after which they were assayed for alkaline phosphatase (ALP) RNA content, an early marker of osteogenic differentiation. FIG. 7 is a graphical illustration showing the amount of ALP RNA expression in the MSCs, expressed as a fold increase over basal conditions (standard culture conditions). In this example, dexamethasone (a control for the assay) was added to the culture media in solution whereas in all other cases the compounds were precoated on to Scaffold I followed by addition of the MSCs. The cells were then cultured for three days and assayed for their level of osteogenic response via ALP RNA expression.

For another data set, the system named is L929. The data set can be described thus: In vitro L929 cytotoxicity assay (CTG). It is filed as cell-based. To be noted: L929 cells; read-out: Cytotox (CTG) CC50.
Text: as §1

Where [5] appears, read: Homo sapiens, Mesenchymal stem cells, 144 h, primary human MSCs, exposure over 6 days, read-out: OI Assay (ALP) EC50.
[6] abbreviates: primary human MSCs, exposure over 6 days, read-out: OI Assay (ALP) EC50.
Setting [7] is: 1 hr exposure, read-out: EC50 1 hr.
Setting [8] is: 4 hr exposure, read-out: EC50 4 hr.
Where [9] appears, read: 24 hr exposure, read-out: EC50 24 hr.
Setting [10] is: 72 hr exposure, read-out: EC50 72 hr.
[11] abbreviates: Homo sapiens, Mesenchymal stem cells, 144 h, MSCs, 6 days exposure, read-out: EC50 6 days.

As for `CC(C)Cn1c(=O)n(C)c(=O)c2[nH]cnc21` [3-isobutyl 1-methylxanthine (IBMX), 3-isobutyl 1-methylxanthine], in data set [1] (setting [5]), the pEC50 is under 5.00.
On to `CC(C)CCC[C@@H](C)[C@H]1CC[C@H]2[C@@H]3CC=C4C[C@@H](O)CC[C@]4(CO)[C@H]3CC[C@]12C` [19-hydroxy-cholesterol], for which the pEC50 in data set [1] (setting [5]) is under 4.92.
For the compound `CC(C)CC[C@H](O)[C@@H](C)[C@H]1CC[C@H]2[C@@H]3CC=C4C[C@@H](O)CC[C@]4(C)[C@H]3CC[C@]12C` [22(S)-hydroxy-cholesterol], the pEC50 in data set [1] (setting [5]) was under 4.92.
Turning to `CC(C)CC[C@@H](O)[C@@H](C)[C@H]1CC[C@H]2[C@@H]3CC=C4C[C@@H](O)CC[C@]4(C)[C@H]3CC[C@]12C` [22(r)-hydroxy-cholesterol], the CC50 in data set [2] is over 12000 nM. For the same compound, the pEC50 in data set [1] (setting [5]) is 6.11.
Consider `C[C@H](CCCC(C)(C)O)[C@H]1CC[C@H]2[C@@H]3CC=C4C[C@@H](O)CC[C@]4(C)[C@H]3CC[C@]12C` [25-hydroxy-cholestero], for which the pEC50 in data set [1] (setting [6]) was under 4.92.
For `C[C@]12CCC(=O)C=C1CC[C@@H]1[C@@H]2[C@@H](O)C[C@]2(C=O)[C@@H](C(=O)CO)CC[C@@H]12` [Aldosterone 98%, Aldosterone], the pEC50 in data set [1] (setting [5]) is 6.54.
Take `C[C@H]1C[C@H]2[C@@H]3CCC4=CC(=O)C=C[C@]4(C)[C@@]3(F)[C@@H](O)C[C@]2(C)[C@@]1(O)C(=O)CO` [Betamethasone]: in data set [1] (setting [5]), the pEC50 was 8.71.
Turning to `CCCC1O[C@@H]2C[C@H]3[C@@H]4CCC5=CC(=O)C=C[C@]5(C)[C@H]4[C@@H](O)C[C@]3(C)[C@]2(C(=O)CO)O1` (some centres unmarked) [Budesonide], the pEC50 is 7.32 in the data set with MSCs [3] (setting [7]); 8.26 in the data set with MSCs [3] (setting [8]); 8.35 in the data set with MSCs [3] (setting [9]); 10.27 in the data set on MSCs [3] (setting [10]); 9.53 in data set [1] (setting [11]); 9.53 in data set [1] (setting [5]). The “Max Osteogenic Response” value in the data set on MSCs [3] was found to be 72 h. In addition, the CC50 in data set [2] was over 30000 nM.
For the compound `CCC(=O)O[C@]1(C(=O)CCl)[C@@H](C)C[C@H]2[C@@H]3CCC4=CC(=O)C=C[C@]4(C)[C@@]3(F)[C@@H](O)C[C@@]21C` [Clobetasol propionate], in the data set with MSCs [4], the “ALP RNA expression (osteogenic differentiation of MSCs)” value was “upregulated osteogenic differentiation of MSCs significantly”. For the same compound, the pEC50 was 10.22 in the data set on MSCs [3] (setting [7]); 10.72 in the data set on MSCs [3] (setting [8]); 10.09 with MSCs [3] (setting [9]); 11.43 in the data set with MSCs [3] (setting [10]); 10.92 in data set [1] (setting [11]); 10.92 in data set [1] (setting [5]). Also, in the data set with MSCs [3], the “Max Osteogenic Response” value amounted to 72 h. In addition, the CC50 in data set [2] was over 30000 nM.
For `CC(=O)OCC(=O)[C@@]12N=C(C)O[C@@H]1C[C@H]1[C@@H]3CCC4=CC(=O)C=C[C@]4(C)[C@H]3[C@@H](O)C[C@@]12C` [Deflazacort], the pEC50 in data set [1] (setting [5]) was 8.01.
Regarding `C[C@@H]1C[C@H]2[C@@H]3CCC4=CC(=O)C=C[C@]4(C)[C@@]3(F)[C@@H](O)C[C@]2(C)[C@@]1(O)C(=O)CO` [Dexamethasone], the negative-log EC50 (pEC50) in the data set with MSCs [3] (setting [8]) was 9.10; in the data set with MSCs [3] (setting [10]), 9.56; in data set [1] (setting [11]) it was 9.02; in data set [1] (setting [5]) it was 9.02. Further, the CC50 in data set [2] was over 50000 nM.
`CC(=O)OCC(=O)[C@@]1(OC(C)=O)[C@@H](C)C[C@H]2[C@@H]3C[C@H](F)C4=CC(=O)C=C[C@]4(C)[C@@]3(F)[C@@H](O)C[C@@]21C` [Diflorasone Diacetate]: the pEC50 in data set [1] (setting [5]) was 8.86.
In the case of `OCCN(CCO)c1nc(N2CCCCC2)c2nc(N(CCO)CCO)nc(N3CCCCC3)c2n1` [Dipyridamole], the CC50 in data set [2] is over 30000 nM.
Regarding `COC(=O)[C@H](CCSC)NC(=O)c1ccc(NC[C@@H](N)CS)cc1-c1ccccc1` [FTI-277 trifluoroacetate salt], the pEC50 in data set [1] (setting [6]) is under 4.92.
The same measure, in the same setting: under `CC(=O)OCC(=O)[C@@]1(O)CC[C@H]2[C@@H]3CCC4=CC(=O)CC[C@]4(C)[C@@]3(F)[C@@H](O)C[C@@]21C` [Fludrocotisone actetate] stands 8.39.
As to `CC(=O)[C@@]1(O)CC[C@H]2[C@@H]3C[C@H](C)C4=CC(=O)C=C[C@]4(C)[C@@]3(F)[C@@H](O)C[C@@]21C` [Fluorometholone], the pEC50 in the data set on MSCs [3] (setting [8]) is 9.33; with MSCs [3] (setting [10]) it was 9.84; in data set [1] (setting [11]) it was 9.50; in data set [1] (setting [5]), 9.50. Also, in the data set on MSCs [3], the “Max Osteogenic Response” value worked out at 144 h. Also, the cytotoxic concentration (CC50) in data set [2] was over 5000 nM.
As for `CC1(C)O[C@@H]2C[C@H]3[C@@H]4C[C@H](F)C5=CC(=O)CC[C@]5(C)[C@H]4[C@@H](O)C[C@]3(C)[C@]2(C(=O)CO)O1` [Flurandrenolide], the pEC50 in data set [1] (setting [5]) is 8.81.
Take `O=CN(O)CCCP(=O)(O)O` [Fosmidomycin]: the negative-log EC50 (pEC50) in data set [1] (setting [5]) is under 5.00.
For `COC(=O)[C@H](CC(C)C)NC(=O)c1ccc(NC[C@@H](N)CS)cc1-c1ccccc1` [GGTI-286], in data set [1] (setting [6]), the pEC50 was under 4.92.
In the case of `CC1(C)O[C@@H]2C[C@H]3[C@@H]4CCC5=CC(=O)CC[C@]5(C)[C@@]4(F)[C@@H](O)C[C@]3(C)[C@]2(C(=O)CCl)O1` [Halcinonide], in the data set with MSCs [4], the “ALP RNA expression (osteogenic differentiation of MSCs)” value was “upregulated osteogenic differentiation of MSCs significantly”. Besides, the pEC50 is 8.64 with MSCs [3] (setting [7]); 8.90 in the data set on MSCs [3] (setting [9]); 9.94 in the data set with MSCs [3] (setting [10]); 9.63 in data set [1] (setting [11]); 9.63 in data set [1] (setting [5]). Also, the “Max Osteogenic Response” value in the data set on MSCs [3] is 72 h. Moreover, the CC50 in data set [2] is over 10000 nM.
Regarding `O=C1C=C2C(=CCOC2O)O1` (centres unmarked) [Patulin], in data set [1] (Mesenchymal stem cells, 144 h, primary human MSCs, exposure over 6 days, read-out: OI Assay (ALP) EC50), the pEC50 was under 5.00.
Take `CC(=O)CCCCn1c(=O)c2c(ncn2C)n(C)c1=O` [Pentoxifylline (Trental), Pentoxifylline]: in data set [1] (setting [5]), the pEC50 was under 5.00.
On the same count and under the same terms, then `CCCn1cnc2c1c(=O)n(CCCCC(C)=O)c(=O)n2C` [Propentofylline], with under 5.00.
Turning to `C[C@]12C=CC(=O)C=C1CC[C@H]1[C@@H]3C[C@@H](O)[C@](O)(C(=O)CO)[C@@]3(C)C[C@H](O)[C@@]12F` [Triamcinolone], the pEC50 in data set [1] (setting [5]) is 8.38.
Still for that read-out and setting: then `CCN(CC)CCOc1ccc(C(O)(Cc2ccc(Cl)cc2)c2ccc(C)cc2)cc1` (centres unmarked) [Triparanol], with under 5.00.
On to `C=C(CC[C@]12O[C@H](C(=O)O)[C@@](O)(C(=O)O)[C@](C(=O)O)(O1)[C@H](OC(=O)/C=C/[C@@H](C)C[C@@H](C)CC)[C@H]2O)[C@@H](OC(C)=O)[C@H](C)Cc1ccccc1` [Zaragozic Acid A], for which the CC50 with L929 is over 30000 nM. The pEC50 in data set [1] (setting [6]) was 6.15.
Take `O=C(O)c1ccc(CCN2CCN(C/C=C/c3ccc(Cl)cc3)CC2)cc1` [bm15766 sulfate]: in data set [1] (setting [6]), the pEC50 was under 5.00.
The same measure, in the same setting: then `CCCC(=O)Nc1ncnc2c1ncn2[C@@H]1O[C@@H]2COP(=O)(O)O[C@H]2[C@H]1OC(=O)CCC` [dbcAMP], with under 5.00; and `CC[C@H](CC[C@@H](C)[C@H]1CC[C@H]2[C@@H]3CC=C4C[C@@H](O)CC[C@]4(C)[C@H]3CC[C@]12C)C(C)C` [β-Sitosterol], with under 4.92.

The record behind these values is US8642065B2, “Osteogenic promoting implants and methods of inducing bone growth” (DePuy Synthes Products, LLC, priority 2011, dated 2014).
